The source of these data is ChEMBL document CHEMBL1777763, “Discovery of a nortropanol derivative as a potent and orally active GPR119 agonist for type 2 diabetes” (Bioorg Med Chem Lett, 2011).

For data set [1], the system named is Mus musculus. The data set is described as follows: Antidiabetic activity in laen mouse model assessed as reduction in blood glucose level at 30 mg/kg, po up to 60 mins by oral glucose tolerance test. Type of data set: functional. As to conditions: 1 h.
Another data set has as its system Rattus norvegicus. Nature of the data set: AUC (0 to 6 hrs) in rat at 10 mg/kg, po. The arrangement: time < 6 hr, dose 10 mg/kg, route oral. As to conditions: in vivo. Type of data set: ADME, organism-based, Plasma.
Data set [2] has as its target T1, Glucose-dependent insulinotropic receptor (Mus musculus, UniProt Q7TQP3).
T1 sequence (Q7TQP3 whole entry): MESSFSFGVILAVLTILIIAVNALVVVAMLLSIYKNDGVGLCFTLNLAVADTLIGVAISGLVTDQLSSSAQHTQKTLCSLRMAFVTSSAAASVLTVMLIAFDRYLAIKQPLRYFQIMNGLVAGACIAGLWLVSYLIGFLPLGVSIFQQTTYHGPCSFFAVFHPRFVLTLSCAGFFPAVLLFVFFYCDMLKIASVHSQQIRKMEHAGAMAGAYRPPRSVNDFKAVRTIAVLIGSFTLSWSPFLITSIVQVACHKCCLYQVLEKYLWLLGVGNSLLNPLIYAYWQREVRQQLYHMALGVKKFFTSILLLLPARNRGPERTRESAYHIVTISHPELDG
Nature of the data set: Agonist activity at mouse GPR119 expressed in HEK293 cells assessed as stimulation of cMAP level by cell-based cAMP assay. Type of data set: functional. In general terms: Changes in cAMP serve as a functional read-out for many G protein-coupled receptors.

In data set [3] the test system is Mus musculus. The data set is described as follows: Antidiabetic activity in overnight fasted mouse model assessed as blood glucose level at 3 mg/kg, po followed by 30 mins after administered 3 g/kg, po glucose by oral glucose tolerance test (reference value: 100 %). It is filed as functional.
Data set [4] in a line: Plasma concentration in mouse at 3 mg/kg, po after 1 hr. Type of data set: ADME, organism-based. The arrangement: dose 3 mg/kg, route oral.
A short description of data set [5]: Plasma concentration in lean mouse at 30 mg/kg, po after 60 mins. The arrangement: dose 30 mg/kg, route oral. It is filed as ADME, organism-based.
Data set [6] deals with T2, Glucose-dependent insulinotropic receptor (Mus musculus) (UniProt Q7TQP3).
T2 sequence (whole entry): T1 sequence (Q7TQP3 whole entry)
Nature of the data set: Agonist activity at mouse GPR119 expressed in HEK293 cells assessed as maximal stimulation of cMAP level by cell-based cAMP assay relative to 21. It is filed as functional.

As usually defined, the inhibition in vivo is the percentage by which the read-out fell short of the control. The AUC is the area under the concentration-time curve, a measure of exposure. A low value points to low exposure. The EC50 is the concentration that produces a half-maximal response. Turning to `CC(C)OC(=O)N1CCC(Oc2cc(Oc3ccc(S(C)(=O)=O)cc3F)ncn2)CC1`, the inhibition in vivo at 30 mg/kg with Mus musculus [1] was determined as 47%. Moreover, in the data set on Rattus norvegicus, the AUC stood at 20.7 µM·h. The EC50 in data set [2] turned out to be 403 nM. Moreover, the “Blood glucose (% of vehicle)” value in the data set with Mus musculus [3] amounted to 78%. The concentration at 1 h in data set [4] came to 480 nM; in data set [5], 12700 nM. The Activity in data set [6] was 100%.
For the compound `Cc1ncccc1Oc1ncnc(O[C@H]2C[C@@H]3CC(F)[C@@H](C2)N3S(=O)(=O)C2CC2)c1C` (stereo not given in full), the EC50 in data set [2] worked out at 710 nM. Moreover, the Activity in data set [6] was found to be 74%.
For `Cc1ncccc1Oc1ncnc(O[C@H]2C[C@@H]3CC(F)(F)[C@@H](C2)N3S(=O)(=O)C2CC2)c1C`, in that order: 220 nM and 52%.
As for `Cc1ncccc1Oc1ncnc(O[C@H]2C[C@H]3CC[C@@H](C2)N3C(=O)OC(C)C2CC2)c1C` (stereo not given in full), in data set [2], the EC50 was determined as 59 nM. Further, in data set [6], the Activity came to 31%.
For `CCCCS(=O)(=O)N1C2CC[C@H]1C[C@@H](Oc1ncnc(Oc3cccnc3C)c1C)C2` (single isomer, unassigned), in that order: 26 nM and 29%.
For the compound `Cc1ncccc1Oc1ncnc(O[C@H]2CC3CC[C@@H](C2)N3C(=O)OC(C)C)c1C` (single isomer, unassigned), the AUC in the data set with Rattus norvegicus worked out at 0.175 µM·h. The EC50 in data set [2] came to 55 nM. Moreover, in the data set with Mus musculus [3], the “Blood glucose (% of vehicle)” value was determined as 100%. The compound further registered a concentration at 1 h in data set [4] of 193 nM. For the same compound, the Activity in data set [6] came out at 20%.
`Cc1ncccc1Oc1ncnc(O[C@H]2CC3CC[C@@H](C2)N3C(=O)OC2(C)CC2)c1C` (single isomer, unassigned): the AUC with Rattus norvegicus was 2.84 µM·h. The EC50 in data set [2] is greater than 30000 nM. In the data set with Mus musculus [3], the “Blood glucose (% of vehicle)” value turned out to be 95%. In data set [4], this compound came in with a concentration at 1 h of 130 nM. Also, the Activity in data set [6] turned out to be 12%.
`CCOC(=O)N1C2CC[C@H]1C[C@@H](Oc1ncnc(Oc3cccnc3C)c1C)C2` (single isomer, unassigned): the EC50 in data set [2] was 324 nM. In addition, the Activity in data set [6] came out at 25%.
For `Cc1ncccc1Oc1ncnc(O[C@H]2CC3CC[C@@H](C2)N3C(=O)OCC(F)(F)F)c1C` (single isomer, unassigned), in that order: 10400 nM and 20%.
For `Cc1ncccc1Oc1ncnc(O[C@H]2CC3CC[C@@H](C2)N3C(=O)OCC2CC2)c1C` (single isomer, unassigned), in that order: 7570 nM and 33%.
Turning to `Cc1ncccc1Oc1ncnc(O[C@H]2CC3CC[C@@H](C2)N3S(=O)(=O)CC(F)(F)F)c1C` (single isomer, unassigned), the EC50 in data set [2] was determined as 660 nM. Further, the Activity in data set [6] stood at 62%.
`Cc1ncccc1Oc1ncnc(O[C@H]2CC3CC[C@@H](C2)N3S(=O)(=O)C2CC2)c1C` (single isomer, unassigned) showed an AUC in the data set on Rattus norvegicus of 0.879 µM·h. Besides, in data set [2], the EC50 came out at 63 nM. In the data set with Mus musculus [3], the “Blood glucose (% of vehicle)” value is recorded as 87%. In data set [4], this compound gave a concentration at 1 h of 2330 nM. The Activity in data set [6] was found to be 76%.
As for `CCCS(=O)(=O)N1C2CC[C@H]1C[C@@H](Oc1ncnc(Oc3cccnc3C)c1C)C2` (single isomer, unassigned), the EC50 in data set [2] is 53 nM. In addition, the Activity in data set [6] came to 49%.
The matching figures for `Cc1ncccc1Oc1ncnc(O[C@H]2CC3CC[C@@H](C2)N3S(=O)(=O)CCC(F)(F)F)c1C` (single isomer, unassigned): 250 nM and 62%.
Turning to `Cc1ncccc1Oc1ncnc(O[C@H]2CC3CC[C@@H](C2)N3S(=O)(=O)CC(C)C)c1C` (single isomer, unassigned), in the data set on Rattus norvegicus, the AUC was determined as 0 µM·h. The EC50 in data set [2] was 70 nM. For the same compound, in data set [6], the Activity stood at 69%.
Turning to `Cc1ncccc1Oc1ncnc(O[C@H]2CC3CC[C@@H](C2)N3S(=O)(=O)c2ccc(Cl)s2)c1C` (single isomer, unassigned), the EC50 in data set [2] is 145 nM. In addition, in data set [6], the Activity is 77%.
For `Cc1ncccc1Oc1ncnc(O[C@H]2CC3CC[C@@H](C2)N3S(=O)(=O)c2ccc(F)cc2)c1C` (single isomer, unassigned), in data set [2], the EC50 is 350 nM. Further, in data set [6], the Activity came to 78%.
The matching figures for `Cc1c(Nc2ccc(S(C)(=O)=O)cc2F)ncnc1O[C@H]1CC2CC[C@@H](C1)N2S(=O)(=O)C1CC1` (single isomer, unassigned): 640 nM and 88%.
As for `Cc1c(Oc2ccccc2Cl)ncnc1O[C@H]1CC2CC[C@@H](C1)N2S(=O)(=O)C1CC1` (single isomer, unassigned), in data set [2], the EC50 turned out to be 82 nM. Moreover, the Activity in data set [6] is 58%.
With `Cc1c(Oc2ccccc2C#N)ncnc1O[C@H]1CC2CC[C@@H](C1)N2S(=O)(=O)C1CC1` (single isomer, unassigned), in the data set on Rattus norvegicus, the AUC is 0.461 µM·h. In addition, in data set [2], the EC50 turned out to be 68 nM. For the same compound, the “Blood glucose (% of vehicle)” value in the data set with Mus musculus [3] was determined as 88%. Besides, in data set [4], the concentration at 1 h was determined as 290 nM. Moreover, in data set [6], the Activity was determined as 74%.
`Cc1c(Oc2ccc(Cl)cc2C#N)ncnc1O[C@H]1CC2CC[C@@H](C1)N2S(=O)(=O)C1CC1` (single isomer, unassigned): in data set [2], the EC50 came to 290 nM. The Activity in data set [6] was 44%.
As for `Cc1ncccc1Nc1ncnc(O[C@H]2CC3CC[C@@H](C2)N3S(=O)(=O)C2CC2)c1C` (single isomer, unassigned), in data set [2], the EC50 turned out to be 2000 nM. In addition, the Activity in data set [6] stood at 110%.
For `Cc1c(Nc2ccccc2C#N)ncnc1O[C@H]1CC2CC[C@@H](C1)N2S(=O)(=O)C1CC1` (single isomer, unassigned), in that order: 180 nM and 80%.
The matching figures for `Cc1c(Nc2ccc(F)cc2C#N)ncnc1O[C@H]1CC2CC[C@@H](C1)N2S(=O)(=O)C1CC1` (single isomer, unassigned): 820 nM and 110%.
`Cc1c(Nc2ccc(C#N)cc2F)ncnc1O[C@H]1CC2CC[C@@H](C1)N2S(=O)(=O)C1CC1` (single isomer, unassigned): in data set [2], the EC50 came out at 220 nM. In addition, the “Blood glucose (% of vehicle)” value with Mus musculus [3] worked out at 95%. Further, the Activity in data set [6] was 84%.
Regarding `Cc1ncccc1Oc1ncnc(O[C@H]2CC3C=C[C@@H](C2)N3C(=O)OC(C)C)c1C` (single isomer, unassigned), the EC50 in data set [2] amounted to 52 nM. In data set [6], the Activity was found to be 48%.
For `Cc1ncccc1Oc1ncnc(O[C@H]2CC3C=C[C@@H](C2)N3S(=O)(=O)C2CC2)c1C` (single isomer, unassigned), in that order: 240 nM and 78%.
Consider `Cc1ncccc1Oc1ncnc(O[C@@H]2CC3CC[C@@H](C2)N3C(=O)OC(C)(C)C)c1C` (single isomer, unassigned; 20f), for which, in data set [2], the EC50 was determined as 300 nM. For the same compound, in data set [6], the Activity came out at 20%.
